Laboratory results published in ChEMBL document CHEMBL3232809, “Synthesis, antibiotic activity and structure-activity relationship study of some 3-enaminetetramic acids” (2014).

System: Escherichia coli
Assay: Antimicrobial activity against Escherichia coli ATCC 25922
Format: functional

| SMILES | MIC [µg/mL] |
| --- | --- |
| C/C(NCCOc1ccccc1Cl)=C1/C(=O)[C@@H]2CCCC(=O)N2C1=O | > 32 |
| C/C(NCCOc1ccccc1Cl)=C1/C(=O)CNC1=O | > 32 |
| COC(=O)[C@@]12CO[C@@H](C(C)(C)C)N1C(=O)/C(=C(\C)Nc1ccccc1)C2=O | > 32 |
| CCOC(=O)[C@]12CO[C@H](C(C)(C)C)N1C(=O)/C(=C(\C)Nc1ncc(Cl)cn1)C2=O | > 32 |
| CCCCCCC/C=C/C(=O)N1C(=O)/C(=C(\C)Nc2ccc(N3CCOCC3)cc2)C(=O)C1CC(C)C (stereo not given) | > 32 |

System: Enterococcus faecalis
Assay: Antimicrobial activity against vancomycin-susceptible Enterococcus faecalis ATCC 29212
Format: functional

| SMILES | MIC [µg/mL] |
| --- | --- |
| C/C(NCCOc1ccccc1Cl)=C1/C(=O)[C@@H]2CCCC(=O)N2C1=O | > 32 |
| C/C(NCCOc1ccccc1Cl)=C1/C(=O)CNC1=O | > 32 |
| COC(=O)[C@@]12CO[C@@H](C(C)(C)C)N1C(=O)/C(=C(\C)Nc1ccccc1)C2=O | > 32 |
| CCOC(=O)[C@]12CO[C@H](C(C)(C)C)N1C(=O)/C(=C(\C)Nc1ncc(Cl)cn1)C2=O | > 32 |
| CCCCCCC/C=C/C(=O)N1C(=O)/C(=C(\C)Nc2ccc(N3CCOCC3)cc2)C(=O)C1CC(C)C (stereo not given) | > 32 |

System: Streptococcus pneumoniae
Assay: Antimicrobial activity against penicillin- and erythromycin-resistant Streptococcus pneumoniae
Format: functional

| SMILES | MIC [µg/mL] |
| --- | --- |
| C/C(NCCOc1ccccc1Cl)=C1/C(=O)[C@@H]2CCCC(=O)N2C1=O | > 32 |
| C/C(NCCOc1ccccc1Cl)=C1/C(=O)CNC1=O | > 32 |
| COC(=O)[C@@]12CO[C@@H](C(C)(C)C)N1C(=O)/C(=C(\C)Nc1ccccc1)C2=O | > 32 |
| CCOC(=O)[C@]12CO[C@H](C(C)(C)C)N1C(=O)/C(=C(\C)Nc1ncc(Cl)cn1)C2=O | > 32 |
| CCCCCCC/C=C/C(=O)N1C(=O)/C(=C(\C)Nc2ccc(N3CCOCC3)cc2)C(=O)C1CC(C)C (stereo not given) | > 32 |

System: Streptococcus pneumoniae
Assay: Antimicrobial activity against penicillin- and erythromycin-resistant Streptococcus pneumoniae in presence of 2.5% horse blood
Format: functional

| SMILES | MIC [µg/mL] |
| --- | --- |
| C/C(NCCOc1ccccc1Cl)=C1/C(=O)[C@@H]2CCCC(=O)N2C1=O | > 32 |
| C/C(NCCOc1ccccc1Cl)=C1/C(=O)CNC1=O | > 32 |
| COC(=O)[C@@]12CO[C@@H](C(C)(C)C)N1C(=O)/C(=C(\C)Nc1ccccc1)C2=O | > 32 |
| CCOC(=O)[C@]12CO[C@H](C(C)(C)C)N1C(=O)/C(=C(\C)Nc1ncc(Cl)cn1)C2=O | > 32 |
| CCCCCCC/C=C/C(=O)N1C(=O)/C(=C(\C)Nc2ccc(N3CCOCC3)cc2)C(=O)C1CC(C)C (stereo not given) | > 32 |

System: Haemophilus influenzae
Assay: Antimicrobial activity against Haemophilus influenzae ATCC 31517 MMSA
Format: functional

| SMILES | MIC [µg/mL] |
| --- | --- |
| C/C(NCCOc1ccccc1Cl)=C1/C(=O)[C@@H]2CCCC(=O)N2C1=O | > 32 |
| C/C(NCCOc1ccccc1Cl)=C1/C(=O)CNC1=O | > 32 |
| COC(=O)[C@@]12CO[C@@H](C(C)(C)C)N1C(=O)/C(=C(\C)Nc1ccccc1)C2=O | > 32 |
| CCOC(=O)[C@]12CO[C@H](C(C)(C)C)N1C(=O)/C(=C(\C)Nc1ncc(Cl)cn1)C2=O | > 32 |
| CCCCCCC/C=C/C(=O)N1C(=O)/C(=C(\C)Nc2ccc(N3CCOCC3)cc2)C(=O)C1CC(C)C (stereo not given) | > 32 |

System: Staphylococcus aureus
Assay: Antimicrobial activity against methicillin-sensitive Staphylococcus aureus ATCC 13709
Format: functional

| SMILES | MIC [µg/mL] |
| --- | --- |
| C/C(NCCOc1ccccc1Cl)=C1/C(=O)[C@@H]2CCCC(=O)N2C1=O | > 32 |
| C/C(NCCOc1ccccc1Cl)=C1/C(=O)CNC1=O | > 32 |
| COC(=O)[C@@]12CO[C@@H](C(C)(C)C)N1C(=O)/C(=C(\C)Nc1ccccc1)C2=O | > 32 |
| CCOC(=O)[C@]12CO[C@H](C(C)(C)C)N1C(=O)/C(=C(\C)Nc1ncc(Cl)cn1)C2=O | > 32 |
| CCCCCCC/C=C/C(=O)N1C(=O)/C(=C(\C)Nc2ccc(N3CCOCC3)cc2)C(=O)C1CC(C)C (stereo not given) | > 32 |

System: Enterococcus faecium
Assay: Antimicrobial activity against vancomycin-resistant Enterococcus faecium
Format: functional

| SMILES | MIC [µg/mL] |
| --- | --- |
| C/C(NCCOc1ccccc1Cl)=C1/C(=O)[C@@H]2CCCC(=O)N2C1=O | > 32 |
| C/C(NCCOc1ccccc1Cl)=C1/C(=O)CNC1=O | > 32 |
| COC(=O)[C@@]12CO[C@@H](C(C)(C)C)N1C(=O)/C(=C(\C)Nc1ccccc1)C2=O | > 32 |
| CCOC(=O)[C@]12CO[C@H](C(C)(C)C)N1C(=O)/C(=C(\C)Nc1ncc(Cl)cn1)C2=O | > 32 |
| CCCCCCC/C=C/C(=O)N1C(=O)/C(=C(\C)Nc2ccc(N3CCOCC3)cc2)C(=O)C1CC(C)C (stereo not given) | > 32 |

System: Pseudomonas aeruginosa
Assay: Antimicrobial activity against Pseudomonas aeruginosa ATCC 27853
Format: functional

| SMILES | MIC [µg/mL] |
| --- | --- |
| C/C(NCCOc1ccccc1Cl)=C1/C(=O)[C@@H]2CCCC(=O)N2C1=O | > 32 |
| C/C(NCCOc1ccccc1Cl)=C1/C(=O)CNC1=O | > 32 |
| COC(=O)[C@@]12CO[C@@H](C(C)(C)C)N1C(=O)/C(=C(\C)Nc1ccccc1)C2=O | > 32 |
| CCOC(=O)[C@]12CO[C@H](C(C)(C)C)N1C(=O)/C(=C(\C)Nc1ncc(Cl)cn1)C2=O | > 32 |
| CCCCCCC/C=C/C(=O)N1C(=O)/C(=C(\C)Nc2ccc(N3CCOCC3)cc2)C(=O)C1CC(C)C (stereo not given) | > 32 |

System: Staphylococcus aureus
Assay: Antimicrobial activity against Staphylococcus aureus Oxford
Format: functional

| SMILES | MIC [µg/mL] |
| --- | --- |
| C/C(NCCOc1ccccc1Cl)=C1/C(=O)[C@@H]2CCCC(=O)N2C1=O | > 32 |
| C/C(NCCOc1ccccc1Cl)=C1/C(=O)CNC1=O | > 32 |
| COC(=O)[C@@]12CO[C@@H](C(C)(C)C)N1C(=O)/C(=C(\C)Nc1ccccc1)C2=O | > 32 |
| CCOC(=O)[C@]12CO[C@H](C(C)(C)C)N1C(=O)/C(=C(\C)Nc1ncc(Cl)cn1)C2=O | > 32 |
| CCCCCCC/C=C/C(=O)N1C(=O)/C(=C(\C)Nc2ccc(N3CCOCC3)cc2)C(=O)C1CC(C)C (stereo not given) | > 32 |

System: Haemophilus influenzae
Assay: Antimicrobial activity against LS2 Efflux knock-out Haemophilus influenzae
Format: functional

| SMILES | MIC [µg/mL] |
| --- | --- |
| C/C(NCCOc1ccccc1Cl)=C1/C(=O)[C@@H]2CCCC(=O)N2C1=O | > 32 |
| C/C(NCCOc1ccccc1Cl)=C1/C(=O)CNC1=O | > 32 |
| COC(=O)[C@@]12CO[C@@H](C(C)(C)C)N1C(=O)/C(=C(\C)Nc1ccccc1)C2=O | > 32 |
| CCOC(=O)[C@]12CO[C@H](C(C)(C)C)N1C(=O)/C(=C(\C)Nc1ncc(Cl)cn1)C2=O | > 32 |
| CCCCCCC/C=C/C(=O)N1C(=O)/C(=C(\C)Nc2ccc(N3CCOCC3)cc2)C(=O)C1CC(C)C (stereo not given) | > 32 |

System: Staphylococcus aureus
Assay: Antimicrobial activity against methicillin-resistant Staphylococcus aureus
Format: functional

| SMILES | MIC [µg/mL] |
| --- | --- |
| C/C(NCCOc1ccccc1Cl)=C1/C(=O)[C@@H]2CCCC(=O)N2C1=O | > 32 |
| C/C(NCCOc1ccccc1Cl)=C1/C(=O)CNC1=O | > 32 |
| COC(=O)[C@@]12CO[C@@H](C(C)(C)C)N1C(=O)/C(=C(\C)Nc1ccccc1)C2=O | > 32 |
| CCOC(=O)[C@]12CO[C@H](C(C)(C)C)N1C(=O)/C(=C(\C)Nc1ncc(Cl)cn1)C2=O | > 32 |
| CCCCCCC/C=C/C(=O)N1C(=O)/C(=C(\C)Nc2ccc(N3CCOCC3)cc2)C(=O)C1CC(C)C (stereo not given) | > 32 |

System: Escherichia coli
Assay: Antimicrobial activity against Escherichia coli 50
Format: functional

| SMILES | MIC [µg/mL] |
| --- | --- |
| C/C(NCCOc1ccccc1Cl)=C1/C(=O)[C@@H]2CCCC(=O)N2C1=O | > 32 |
| C/C(NCCOc1ccccc1Cl)=C1/C(=O)CNC1=O | > 32 |
| COC(=O)[C@@]12CO[C@@H](C(C)(C)C)N1C(=O)/C(=C(\C)Nc1ccccc1)C2=O | > 32 |
| CCOC(=O)[C@]12CO[C@H](C(C)(C)C)N1C(=O)/C(=C(\C)Nc1ncc(Cl)cn1)C2=O | > 32 |
| CCCCCCC/C=C/C(=O)N1C(=O)/C(=C(\C)Nc2ccc(N3CCOCC3)cc2)C(=O)C1CC(C)C (stereo not given) | > 32 |

System: Streptococcus pneumoniae
Assay: Antimicrobial activity against erythromycin-susceptible Streptococcus pneumoniae ATCC 49619
Format: functional

| SMILES | MIC [µg/mL] |
| --- | --- |
| C/C(NCCOc1ccccc1Cl)=C1/C(=O)[C@@H]2CCCC(=O)N2C1=O | > 32 |
| C/C(NCCOc1ccccc1Cl)=C1/C(=O)CNC1=O | > 32 |
| COC(=O)[C@@]12CO[C@@H](C(C)(C)C)N1C(=O)/C(=C(\C)Nc1ccccc1)C2=O | > 32 |
| CCOC(=O)[C@]12CO[C@H](C(C)(C)C)N1C(=O)/C(=C(\C)Nc1ncc(Cl)cn1)C2=O | > 32 |
| CCCCCCC/C=C/C(=O)N1C(=O)/C(=C(\C)Nc2ccc(N3CCOCC3)cc2)C(=O)C1CC(C)C (stereo not given) | > 32 |

System: Escherichia coli
Assay: Antimicrobial activity against Escherichia coli 49
Format: functional

| SMILES | MIC [µg/mL] |
| --- | --- |
| C/C(NCCOc1ccccc1Cl)=C1/C(=O)[C@@H]2CCCC(=O)N2C1=O | > 32 |
| C/C(NCCOc1ccccc1Cl)=C1/C(=O)CNC1=O | > 32 |
| COC(=O)[C@@]12CO[C@@H](C(C)(C)C)N1C(=O)/C(=C(\C)Nc1ccccc1)C2=O | > 32 |
| CCOC(=O)[C@]12CO[C@H](C(C)(C)C)N1C(=O)/C(=C(\C)Nc1ncc(Cl)cn1)C2=O | > 32 |
| CCCCCCC/C=C/C(=O)N1C(=O)/C(=C(\C)Nc2ccc(N3CCOCC3)cc2)C(=O)C1CC(C)C (stereo not given) | > 32 |

System: Staphylococcus aureus
Assay: Antimicrobial activity against vancomycin-susceptible Staphylococcus aureus ATCC 25923
Format: functional

| SMILES | MIC [µg/mL] |
| --- | --- |
| C/C(NCCOc1ccccc1Cl)=C1/C(=O)[C@@H]2CCCC(=O)N2C1=O | > 32 |
| C/C(NCCOc1ccccc1Cl)=C1/C(=O)CNC1=O | > 32 |
| COC(=O)[C@@]12CO[C@@H](C(C)(C)C)N1C(=O)/C(=C(\C)Nc1ccccc1)C2=O | > 32 |
| CCOC(=O)[C@]12CO[C@H](C(C)(C)C)N1C(=O)/C(=C(\C)Nc1ncc(Cl)cn1)C2=O | > 32 |
| CCCCCCC/C=C/C(=O)N1C(=O)/C(=C(\C)Nc2ccc(N3CCOCC3)cc2)C(=O)C1CC(C)C (stereo not given) | > 32 |
